{
  "source": "patent US9040519B2",
  "about": "“Fused tetracyclic pyrido [4,3-B] indole and pyrido [3,4-B] indole derivatives and methods of use” (Medivation Technologies, Inc., priority 2010, dated 2015)",
  "key": {"[1]": {"biological_target": "T1, human recombinant histamine H1 receptor (Homo sapiens, UniProt P35367)", "T1 construct": "expressed in transfected cells; host or cells: CHO-K1", "T1 sequence (P35367 whole entry)": "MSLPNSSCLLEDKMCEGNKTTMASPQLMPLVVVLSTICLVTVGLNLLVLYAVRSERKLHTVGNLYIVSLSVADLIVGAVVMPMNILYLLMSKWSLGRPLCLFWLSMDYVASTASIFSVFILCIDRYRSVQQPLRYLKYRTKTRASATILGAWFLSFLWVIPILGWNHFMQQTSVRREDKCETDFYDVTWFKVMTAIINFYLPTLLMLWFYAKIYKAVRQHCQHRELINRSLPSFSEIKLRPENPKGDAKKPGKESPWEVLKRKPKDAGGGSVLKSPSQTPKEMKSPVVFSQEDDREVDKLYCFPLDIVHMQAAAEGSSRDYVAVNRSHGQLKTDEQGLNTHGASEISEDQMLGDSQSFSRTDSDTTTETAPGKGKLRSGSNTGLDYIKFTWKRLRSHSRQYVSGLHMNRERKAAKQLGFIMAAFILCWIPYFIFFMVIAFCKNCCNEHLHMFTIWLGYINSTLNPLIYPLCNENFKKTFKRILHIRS", "assay": "Histamine H1 radioligand binding ([3H]Pyrilamine)", "details": "compound at 0.1 μM; 1.2 nM [3H]Pyrilamine; CHO K1 cells; read-out: Histamine H1 Binding (0.1 μM), percentage inhibition", "description": "To evaluate in radioligand binding assays the activity of compounds of the invention, human recombinant histamine H1 receptor expressed in Chinese hamster ovary (CHO) K1 cells (De Backer, M. et al, Biochem. Biophys. Res. Comm. 197(3):1601, 1993) in a modified Tris-HCl buffer (50 mM Tris-HCl, pH 7.4, 2 mM MgCl2, 100 mM NaCl, 250 mM Sucrose) was used. Compounds of the invention were incubated with 1.2 nM [^3H]Pyrilamine for 180 min at 25° C. Non-specific binding was estimated in the presence of 1 μM Pyrilamine. Receptor proteins were filtered and washed, the filters were then counted to determine [^3H]Pyrilamine specifically bound. Compounds were screened at 1 μM or lower, using 1% DMSO as vehicle. Biochemical assay results are presented as the percent inhibition of specific binding in Table 2."}, "[2]": {"biological_target": "T2, human recombinant serotonin (5-Hydroxytryptamine) 5-HT7 receptor (Homo sapiens, UniProt P34969)", "T2 construct": "expressed in transfected cells; host or cells: CHO", "T2 sequence (P34969 whole entry)": "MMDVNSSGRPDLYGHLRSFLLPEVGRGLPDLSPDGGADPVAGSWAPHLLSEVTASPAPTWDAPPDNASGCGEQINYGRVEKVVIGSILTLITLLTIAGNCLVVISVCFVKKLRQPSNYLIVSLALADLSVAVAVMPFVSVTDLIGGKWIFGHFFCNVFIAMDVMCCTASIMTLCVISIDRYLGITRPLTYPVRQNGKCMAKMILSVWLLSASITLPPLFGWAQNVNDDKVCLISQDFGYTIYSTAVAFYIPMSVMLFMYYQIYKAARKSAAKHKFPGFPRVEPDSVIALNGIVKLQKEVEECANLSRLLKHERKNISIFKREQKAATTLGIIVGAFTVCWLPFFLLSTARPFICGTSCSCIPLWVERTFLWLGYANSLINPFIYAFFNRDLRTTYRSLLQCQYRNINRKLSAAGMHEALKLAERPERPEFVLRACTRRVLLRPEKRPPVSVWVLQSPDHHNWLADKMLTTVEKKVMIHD", "assay": "Serotonin 5-HT7 radioligand binding ([3H]LSD)", "details": "compound at 0.1 μM; CHO cells; read-out: Percentage inhibition of ligand binding, Serotonin 5-HT7", "description": "To evaluate in radioligand binding assays the activity of compounds of the invention, human recombinant serotonin (5-Hydroxytryptamine) 5-HT7 receptor expressed in Chinese hamster ovary (CHO) cells (Roth, B. et al, J. Pharmacol. Exp. Ther. 268:1403, 1994; Shen, Y. et al, J. Biol. Chem. 268:18200, 1993) in a modified Tris-HCl buffer (50 mM Tris-HCl, pH 7.4, 10 mM MgCl2, 0.5 mM EDTA) was used. Compounds of invention were incubated with 5.5 nM [^3H] Lysergic acid diethylamide (LSD) for 2 h at 25° C. Non-specific binding was estimated in the presence of 10 μM Serotonin (5-HT). Receptor proteins were filtered and washed, the filters were then counted to determine [^3H]LSD specifically bound. Compounds were screened at 1 μM or lower, using 1% DMSO as vehicle. Biochemical assay results are presented as the percent inhibition of specific binding in Table 4."}, "[3]": {"biological_target": "T3, human recombinant dopamine D2L receptor (Homo sapiens, UniProt P14416)", "T3 construct": "expressed in transfected cells; host or cells: CHO", "T3 sequence (P14416 whole entry)": "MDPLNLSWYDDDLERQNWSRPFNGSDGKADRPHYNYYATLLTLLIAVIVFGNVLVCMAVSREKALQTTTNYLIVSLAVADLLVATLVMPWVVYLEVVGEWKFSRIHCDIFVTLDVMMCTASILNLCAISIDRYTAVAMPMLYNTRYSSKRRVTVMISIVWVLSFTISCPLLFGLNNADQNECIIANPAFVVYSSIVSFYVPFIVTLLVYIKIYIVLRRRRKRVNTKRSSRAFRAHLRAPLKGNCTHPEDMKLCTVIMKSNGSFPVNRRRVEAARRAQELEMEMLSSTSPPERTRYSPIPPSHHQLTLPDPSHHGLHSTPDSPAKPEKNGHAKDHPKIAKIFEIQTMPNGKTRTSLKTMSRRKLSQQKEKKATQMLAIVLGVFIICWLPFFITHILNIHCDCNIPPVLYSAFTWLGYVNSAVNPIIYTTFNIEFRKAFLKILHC", "assay": "Dopamine D2L radioligand binding ([3H]Spiperone)", "details": "compound at 1 μM; CHO cells; read-out: Percentage inhibition of ligand binding, Dopamine D2L", "description": "To evaluate in radioligand binding assays the activity of compounds of the invention, human recombinant dopamine D2L receptor expressed in Chinese hamster ovary (CHO) cells (Grandy, D. et al, Proc. Natl. Acad. Sci. USA. 86:9762, 1989; Hayes, G. et al, Mol. Endocrinol. 6:920, 1992) in a modified Tris-HCl buffer (50 mM Tris-HCl, pH 7.4, 1.4 mM Ascorbic Acid, 0.001% BSA, 150 mM NaCl) was used. Compounds of the invention were incubated with 0.16 nM [^3H]Spiperone for 120 min at 25° C. Non-specific binding was estimated in the presence of 10 μM Haloperidol. Receptor proteins were filtered and washed, the filters were then counted to determine [^3H]Spiperone specifically bound. Compounds were screened at 1 μM or lower, using 1% DMSO as vehicle. Biochemical assay results are presented as the percent inhibition of specific binding in Table 3."}, "[4]": {"biological_target": "T4, human recombinant serotonin (5-Hydroxytryptamine) 5-HT2A receptor (Homo sapiens, UniProt P28223)", "T4 construct": "expressed in transfected cells; host or cells: CHO-K1", "T4 sequence (P28223 whole entry)": "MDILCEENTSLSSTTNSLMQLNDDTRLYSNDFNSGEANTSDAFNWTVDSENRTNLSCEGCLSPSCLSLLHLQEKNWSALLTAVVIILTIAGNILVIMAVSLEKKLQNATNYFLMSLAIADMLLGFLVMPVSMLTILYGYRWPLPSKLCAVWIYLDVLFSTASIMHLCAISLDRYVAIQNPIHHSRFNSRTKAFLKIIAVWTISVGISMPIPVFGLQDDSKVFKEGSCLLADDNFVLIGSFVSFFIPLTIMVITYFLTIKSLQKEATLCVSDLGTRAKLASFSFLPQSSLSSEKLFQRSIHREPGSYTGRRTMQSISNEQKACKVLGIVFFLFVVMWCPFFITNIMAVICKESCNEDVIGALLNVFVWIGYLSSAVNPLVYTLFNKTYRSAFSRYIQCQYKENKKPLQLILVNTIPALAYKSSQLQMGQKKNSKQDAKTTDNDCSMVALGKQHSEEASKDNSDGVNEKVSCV", "assay": "Serotonin 5-HT2A radioligand binding ([3H]Ketanserin)", "details": "compound at 0.1 μM; CHO K1 cells; read-out: Percentage inhibition of ligand binding, Serotonin 5-HT2A", "description": "To evaluate in radioligand binding assays the activity of compounds of the invention, human recombinant serotonin (5-Hydroxytryptamine) 5-HT2A receptor expressed in Chinese hamster ovary (CHO) K1 cells (Bonhaus, D. et al, Br. J. Pharmacol. 115:622, 1995; Saucier, C. et al, J. Neurochem. 68:1998, 1997) in a 50 mM Tris-HCl buffer, pH 7.4, was used. Compounds of the invention were incubated with 0.5 nM [^3H]Ketanserin for 60 min at 25° C. Non-specific binding was estimated in the presence of 1 μM Mianserin. Receptor proteins were filtered and washed, the filters were then counted to determine [^3H]Ketanserin specifically bound. Compounds were screened at 1 μM or lower, using 1% DMSO as vehicle. Biochemical assay results are presented as the percent inhibition of specific binding in Table 4."}, "[5]": {"biological_target": "T5, human recombinant adrenergic α2C receptor (Homo sapiens, UniProt P18825)", "T5 construct": "expressed in transfected cells; host or cells: insect Sf9 cells", "T5 sequence (P18825 1-462)": "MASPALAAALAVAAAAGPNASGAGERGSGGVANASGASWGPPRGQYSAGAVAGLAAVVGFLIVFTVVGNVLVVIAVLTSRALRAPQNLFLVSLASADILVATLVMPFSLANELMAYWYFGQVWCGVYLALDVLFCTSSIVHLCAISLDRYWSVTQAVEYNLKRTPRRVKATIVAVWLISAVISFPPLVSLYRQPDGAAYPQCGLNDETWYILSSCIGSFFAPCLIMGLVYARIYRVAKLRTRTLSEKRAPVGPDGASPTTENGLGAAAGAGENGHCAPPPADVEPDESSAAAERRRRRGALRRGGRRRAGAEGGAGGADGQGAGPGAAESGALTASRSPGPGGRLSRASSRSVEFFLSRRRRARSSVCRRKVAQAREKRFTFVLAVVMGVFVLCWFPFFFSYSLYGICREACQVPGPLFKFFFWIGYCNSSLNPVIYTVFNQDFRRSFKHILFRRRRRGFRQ", "assay": "Adrenergic α2C radioligand binding ([3H]MK-912)", "details": "compound at 0.1 μM; insect Sf9 cells; read-out: Percentage inhibition of ligand binding, Adrenergic α2C", "description": "To evaluate in radioligand binding assays the activity of compounds of the invention, human recombinant adrenergic α2C receptor expressed in insect Sf9 cells (Uhlen, S. et al, J. Pharmacol. Exp. Ther. 271:1558, 1994) in a modified Tris-HCl buffer (50 mM Tris-HCl, pH 7.4, 12.5 mM MgCl2, 2 mM EDTA) was used. Compounds of the invention were incubated with 1 nM [^3H]MK-912 for 60 min at 25° C. Non-specific binding was estimated in the presence of 10 μM WB-4101. Receptor proteins were filtered and washed, the filters were then counted to determine [^3H]MK-912 specifically bound. Compounds were screened at 1 μM or lower, using 1% DMSO as vehicle. Biochemical assay results are presented as the percent inhibition of specific binding in Table 3."}},
  "data": [
    {"smiles": "Cc1ccc2c(c1)c1c3n2C(c2ccccc2)=CCC3(C)CN(C)C1", "note": "(stereo not drawn) [Compound 10, 2,3a,10-trimethyl-6-phenyl-2,3,3a,4-tetrahydro-1H-indolo[3,2,1-ij][1,6]naphthyridine]", "values": [
      {"measurement": "inhibition at 0.1 µM", "setting": "[1]", "result": 3, "unit": "%"},
      {"measurement": "inhibition at 0.1 µM", "setting": "[2]", "result": 12, "unit": "%"},
      {"measurement": "inhibition at 1 µM", "setting": "[3]", "result": 9, "unit": "%"},
      {"measurement": "inhibition at 0.1 µM", "setting": "[4]", "result": 13, "unit": "%"},
      {"measurement": "inhibition at 0.1 µM", "setting": "[5]", "result": 2, "unit": "%"}
    ]},
    {"smiles": "Cc1ccc2c(c1)c1c3n2CC(c2ccncc2)=CCC3(C)CN(C)C1", "note": "(stereo not drawn) [Compound 11, 2,3a,10-trimethyl-6-pyridin-4-yl-1,2,3,3a,4,7-hexahydro-2,7a-diaza-cyclohepta[jk]fluorene]", "values": [
      {"measurement": "inhibition at 0.1 µM", "setting": "[1]", "result": 2, "unit": "%"},
      {"measurement": "inhibition at 0.1 µM", "setting": "[2]", "result": -8, "unit": "%"},
      {"measurement": "inhibition at 1 µM", "setting": "[3]", "result": 3, "unit": "%"},
      {"measurement": "inhibition at 0.1 µM", "setting": "[4]", "result": 10, "unit": "%"},
      {"measurement": "inhibition at 0.1 µM", "setting": "[5]", "result": 1, "unit": "%"}
    ]},
    {"smiles": "Cc1ccc2c(c1)c1c3n2C(c2ccccc2)CCC3(C)CN(C)C1", "note": "(stereo not drawn) [Compound 12, 2,3a,10-trimethyl-6-phenyl-2,3,3a,4,5,6-hexahydro-1H-indolo[3,2,1-ij][1,6]naphthyridine]", "values": [
      {"measurement": "inhibition at 0.1 µM", "setting": "[1]", "result": 20, "unit": "%"},
      {"measurement": "inhibition at 0.1 µM", "setting": "[2]", "result": -17, "unit": "%"},
      {"measurement": "inhibition at 1 µM", "setting": "[3]", "result": 5, "unit": "%"},
      {"measurement": "inhibition at 0.1 µM", "setting": "[4]", "result": 12, "unit": "%"},
      {"measurement": "inhibition at 0.1 µM", "setting": "[5]", "result": -3, "unit": "%"}
    ]}
  ]
}
